Experiment: Phase I safety and tolerability (DLTs, adverse events, laboratory, ECG)
Format: in vivo
Description: This study employed a standard 3 + 3 dose escalation design with a starting dose of 25 mg QD. […] Dose escalation decisions took into account all available data from evaluable subjects as well as PK and the safety profile of prior dose cohorts. […] There was a minimum 5-day stagger between dosing of the first and second subjects in each dose cohort. Dose escalation decisions were made by a data review committee (DRC) composed of, at minimum, the medical monitor, at least one principal investigator, and a sponsor representative, per the study DRC Plan. Dose escalation could continue until 2 or more subjects in the same dose cohort experienced a dose-limiting toxicity (DLT). DLTs were defined as Grade 3 or 4 adverse drug reactions (ADRs), with grades as defined in the National Cancer Institute Common Toxicity Criteria for Adverse Events (NCI-CTCAE) version 5.0. […] The MTD was defined as the highest dose at which no more than 1 of 6 subjects experienced a DLT during cycle 1 of the study drug. The MTD would have been exceeded if 2 or more subjects in a dose cohort of up to 6 subjects experienced a DLT. Subjects could continue treatment until disease progression, unacceptable toxicity, death, withdrawal of consent, or loss to follow-up.
Before enrolment in the study, all patients received a detailed medical history and physical examination. Clinical laboratory evaluations included clinical chemistry, complete blood count, urinalysis, coagulation factors, and a lipid panel. Other safety assessments included vital signs, physical examination, electrocardiogram, and echocardiogram with multigated acquisition (ECHO/MUGA). Safety assessments were performed on days 1, 8, 15, and 21 of cycle 1, and on day 1 of cycles 2 to 6.

[1] = Grade All, Overall Study (N = 35)
[2] = Possibly related, Overall BID (N = 15)
[3] = Possibly related, Overall QD (N = 20)
[4] = Possibly related, Overall Study (N = 35)
[5] = Probably related, Overall BID (N = 15)
[6] = Probably related, Overall QD (N = 20)
[7] = Probably related, Overall Study (N = 35)
[8] = Relatedness All, Overall BID (N = 15)
[9] = Relatedness All, Overall QD (N = 20)
[10] = Relatedness All, Overall Study (N = 35)

Nc1ncc(-c2cnn(C3CCNCC3)c2)cc1-c1nnc(CC2CC2)o1 [SLC-391, 3-(5-[cyclopropylmethyl]-1,3,4-oxadiazol-2-yl)-5-(1-[piperidin-4-yl]-1H-pyrazol-4-yl)-pyridin-2-amine]
TEAE: Musculoskeletal and connective tissue disorders [1]: 14 (40.0) n (%) | TEAE: Nausea [1]: 24 (68.6) n (%) | TEAE: Nervous system disorders [1]: 15 (42.9) n (%) | TEAE: Oedema peripheral [1]: 4 (11.4) n (%) | TEAE: Psychiatric disorders [1]: 5 (14.3) n (%) | TEAE: Pyrexia [1]: 5 (14.3) n (%) | TEAE: Renal and urinary disorders [1]: 6 (17.1) n (%) | TEAE: Respiratory, thoracic, and mediastinal disorders [1]: 19 (54.3) n (%) | TEAE: Skin and subcutaneous tissue disorders [1]: 10 (28.6) n (%) | TEAE: Urinary tract infection [1]: 4 (11.4) n (%) | TEAE: Vascular disorders [1]: 5 (14.3) n (%) | TEAE: Vomiting [1]: 17 (48.6) n (%) | TEAE: Weight decreased [1]: 6 (17.1) n (%) | Any treatment-related adverse event (TRAE) [2]: 7 (46.7%) n (%) | TRAE: Decreased appetite [2]: 1 (6.7%) n (%) | TRAE: Diarrhoea [2]: 4 (26.7%) n (%) | TRAE: Dysgeusia [2]: 1 (6.7%) n (%) | TRAE: Fatigue [2]: 3 (20.0%) n (%) | TRAE: Gastrointestinal disorders [2]: 5 (33.3%) n (%) | TRAE: General disorders and administration site conditions [2]: 3 (20.0%) n (%) | TRAE: Metabolism and nutrition disorders [2]: 1 (6.7%) n (%) | TRAE: Nausea [2]: 4 (26.7%) n (%) | TRAE: Nervous system disorders [2]: 1 (6.7%) n (%) | TRAE: Skin and subcutaneous tissue disorders [2]: 2 (13.3%) n (%) | TRAE: Vomiting [2]: 1 (6.7%) n (%) | Any treatment-related adverse event (TRAE) [3]: 8 (40.0%) n (%) | TRAE: Decreased appetite [3]: 3 (15.0%) n (%) | TRAE: Diarrhoea [3]: 5 (25.0%) n (%) | TRAE: Dysgeusia [3]: 0 n (%) | TRAE: Fatigue [3]: 2 (10.0%) n (%) | TRAE: Gastrointestinal disorders [3]: 8 (40.0%) n (%) | TRAE: General disorders and administration site conditions [3]: 3 (15.0%) n (%) | TRAE: Metabolism and nutrition disorders [3]: 4 (20.0%) n (%) | TRAE: Nausea [3]: 5 (25.0%) n (%) | TRAE: Nervous system disorders [3]: 1 (5.0%) n (%) | TRAE: Skin and subcutaneous tissue disorders [3]: 4 (20.0%) n (%) | TRAE: Vomiting [3]: 3 (15.0%) n (%) | Any treatment-related adverse event (TRAE) [4]: 15 (42.9%) n (%) | TRAE: Decreased appetite [4]: 4 (11.4%) n (%) | TRAE: Diarrhoea [4]: 9 (25.7%) n (%) | TRAE: Dysgeusia [4]: 1 (2.9%) n (%) | TRAE: Fatigue [4]: 5 (14.3%) n (%) | TRAE: Gastrointestinal disorders [4]: 13 (37.1%) n (%) | TRAE: General disorders and administration site conditions [4]: 6 (17.1%) n (%) | TRAE: Metabolism and nutrition disorders [4]: 5 (14.3%) n (%) | TRAE: Nausea [4]: 9 (25.7%) n (%) | TRAE: Nervous system disorders [4]: 2 (5.7%) n (%) | TRAE: Skin and subcutaneous tissue disorders [4]: 6 (17.1%) n (%) | TRAE: Vomiting [4]: 4 (11.4%) n (%) | Any treatment-related adverse event (TRAE) [5]: 1 (6.7%) n (%) | TRAE: Diarrhoea [5]: 1 (6.7%) n (%) | TRAE: Dysgeusia [5]: 0 n (%) | TRAE: Gastrointestinal disorders [5]: 1 (6.7%) n (%) | TRAE: Nausea [5]: 0 n (%) | TRAE: Nervous system disorders [5]: 0 n (%) | TRAE: Skin and subcutaneous tissue disorders [5]: 0 n (%) | TRAE: Vomiting [5]: 0 n (%) | Any treatment-related adverse event (TRAE) [6]: 3 (15.0%) n (%) | TRAE: Diarrhoea [6]: 0 n (%) | TRAE: Dysgeusia [6]: 1 (5.0%) n (%) | TRAE: Gastrointestinal disorders [6]: 2 (10.0%) n (%) | TRAE: Nausea [6]: 2 (10.0%) n (%) | TRAE: Nervous system disorders [6]: 2 (10.0%) n (%) | TRAE: Skin and subcutaneous tissue disorders [6]: 2 (10.0%) n (%) | TRAE: Vomiting [6]: 1 (5.0%) n (%) | Any treatment-related adverse event (TRAE) [7]: 4 (11.4%) n (%) | TRAE: Diarrhoea [7]: 1 (2.9%) n (%) | TRAE: Dysgeusia [7]: 1 (2.9%) n (%) | TRAE: Gastrointestinal disorders [7]: 3 (8.6%) n (%) | TRAE: Nausea [7]: 2 (5.7%) n (%) | TRAE: Nervous system disorders [7]: 2 (5.7%) n (%) | TRAE: Skin and subcutaneous tissue disorders [7]: 2 (5.7%) n (%) | TRAE: Vomiting [7]: 1 (2.9%) n (%) | SAEs, subjects (QD cohorts): 20.0% | TEAEs leading to treatment interruption or missed dose (QD cohorts): 20.0% | TEAEs leading to treatment or study discontinuation, subjects (QD cohorts): 20.0% | subjects with Grade 3 TEAEs (QD cohorts): 30.0% | subjects with TRAEs (QD cohorts): 90.0% | subjects with at least one TEAE (QD cohorts): 95.0% | Any treatment-related adverse event (TRAE) [8]: 13 (86.7%) n (%) | TRAE: Decreased appetite [8]: 3 (20.0%) n (%) | TRAE: Diarrhoea [8]: 7 (46.7%) n (%) | TRAE: Dysgeusia [8]: 2 (13.3%) n (%) | TRAE: Fatigue [8]: 4 (26.7%) n (%) | TRAE: Gastrointestinal disorders [8]: 11 (73.3%) n (%) | TRAE: General disorders and administration site conditions [8]: 4 (26.7%) n (%) | TRAE: Metabolism and nutrition disorders [8]: 3 (20.0%) n (%) | TRAE: Nausea [8]: 8 (53.3%) n (%) | TRAE: Nervous system disorders [8]: 2 (13.3%) n (%) | TRAE: Skin and subcutaneous tissue disorders [8]: 2 (13.3%) n (%) | TRAE: Vomiting [8]: 4 (26.7%) n (%) | Any treatment-related adverse event (TRAE) [9]: 18 (90.0%) n (%) | TRAE: Decreased appetite [9]: 5 (25.0%) n (%) | TRAE: Diarrhoea [9]: 10 (50.0%) n (%) | TRAE: Dysgeusia [9]: 2 (10.0%) n (%) | TRAE: Fatigue [9]: 5 (25.0%) n (%) | TRAE: Gastrointestinal disorders [9]: 16 (80.0%) n (%) | TRAE: General disorders and administration site conditions [9]: 6 (30.0%) n (%) | TRAE: Metabolism and nutrition disorders [9]: 6 (30.0%) n (%) | TRAE: Nausea [9]: 11 (55.0%) n (%) | TRAE: Nervous system disorders [9]: 4 (20.0%) n (%) | TRAE: Skin and subcutaneous tissue disorders [9]: 6 (30.0%) n (%) | TRAE: Vomiting [9]: 9 (45.0%) n (%) | Any treatment-related adverse event (TRAE) [10]: 31 (88.6%) n (%) | TRAE: Decreased appetite [10]: 8 (22.9%) n (%) | TRAE: Diarrhoea [10]: 17 (48.6%) n (%) | TRAE: Dysgeusia [10]: 4 (11.4%) n (%) | TRAE: Fatigue [10]: 9 (25.7%) n (%) | TRAE: Gastrointestinal disorders [10]: 27 (77.1%) n (%) | TRAE: General disorders and administration site conditions [10]: 10 (28.6%) n (%) | TRAE: Metabolism and nutrition disorders [10]: 9 (25.7%) n (%) | TRAE: Nausea [10]: 19 (54.3%) n (%) | TRAE: Nervous system disorders [10]: 6 (17.1%) n (%) | TRAE: Skin and subcutaneous tissue disorders [10]: 8 (22.9%) n (%) | TRAE: Vomiting [10]: 13 (37.1%) n (%) | deaths (after study drug discontinuation due to progressive disease): Two deaths | heme toxicity, ECG, neutrophil count, QT interval/QTcF (all subjects): no reports of heme toxicity or clinically significant abnormal ECG and neutrophil count changes, including QT interval or QTcF prolongation | TEAEs leading to drug withdrawal or study discontinuation, subjects (all subjects (7/35)): 20.0% | subjects with at least one TEAE (all subjects (34/35)): 97.1% | subjects with Grade 3 TRAEs considered related to SLC-391 (all subjects (N = 35)): 8.6% | subjects with a maximum of Grade 1 TEAEs (all subjects (N = 35)): 8.6% | subjects with a maximum of Grade 2 TEAEs (all subjects (N = 35)): 54.3% | subjects with a maximum of Grade 3 TEAEs (all subjects (N = 35)): 34.3% | subjects with dosing interrupted due to TEAEs (all subjects (N = 35)): 25.7% | subjects with one or more TRAE (all subjects (N = 35)): 88.6% | subjects with SAEs (all subjects (N = 35), eight SAEs in five subjects): 14.3% | subjects with SAEs leading to dose interruption, drug withdrawal, or study discontinuation (all subjects (N = 35), four SAEs in three subjects): 8.6% | dose recommended by the safety review committee for further investigations (based on safety profile, PK and in vitro/in vivo efficacy data): 150 mg BID | clinical chemistry-related toxicities (hypokalaemia, hypomagnesaemia, hyponatraemia, hypophosphataemia, increased blood creatinine, decreased blood zinc, all unrelated to SLC-391): Most clinical chemistry-related toxicities were Grade 1 or 2

From article PMC12736120, “First-in-Human Phase I Clinical Trial of SLC-391, a Novel and Selective AXL Inhibitor, in Patients with Advanced Solid Tumours” (Pharmaceuticals, 2025)
